Results published in patent publication US4855287A, “Aminoglycoside compounds, processes for production thereof, and pharamaceutical composition containing the same” (Kowa Company, Ltd., priority 1985, dated 1989).
Where two headings read alike, the source gives them in different places.

System: Bacillus subtilis ATCC 6633
Assay: Test for antibacterial activity (paper disk, diameter of inhibitory zone, before and after incubation in rat liver/kidney homogenate)
Assay type: cell-based
Settings: 200 mcq/ml, 8 mm paper disk
Experimental: Each of the test compounds shown in the following table was dissolved in a concentration of 200 mcq/ml in a homogenate of a 10% physiological saline solution of an organ of a rat, and incubated at 37° C. for 2 hours. An enzymatic reaction was stopped by adding an equal amount of ethanol. The antibacterial activity of the test compound before incubation was compared with that after incubation. The incubation was carried out in an equal amount mixture of a liver homogenate and a kidney homogenate. The antibacterial activity was measured by a paper disk having a diameter of 8 mm using Bacillus subtilis ATCC 6633 as a test organism, and shown by the diameter of the resulting inhibitory zone.

[1] = ATCC6633, after incubation at 37° C. for 2 hours in rat liver homogenate and kidney homogenate, read-out: Diameter of the inhibitory zone, after incubation
[2] = ATCC6633, before incubation, read-out: Diameter of the inhibitory zone, before incubation

| Structure (SMILES) | zone of inhibition at 200 µg/mL [1] [mm] | zone of inhibition at 200 µg/mL [2] [mm] |
| --- | --- | --- |
| CC(=O)NCCCC[C@H](N)C(=O)NCC(=O)N(C)C1C(O)CC(N)C(OC2OC(C(C)N)CCC2N)C1O (stereo partly drawn) [Example 1, 2"-N-(N^ε -acetyl-L-lysyl)-5-de-O-methyl-KA-6606I] | 25.1 | 14.1 |
| CCCCCCCCCC(=O)NCCCC[C@H](N)C(=O)NCC(=O)N(C)C1C(O)CC(N)C(OC2OC(C(C)N)CCC2N)C1O (stereo partly drawn) [Example 2, 2"-N-(N^ε -decanoyl-L-lysyl)-5-de-O-methyl-KA-6606I] | 22 | 15.9 |
| CCCCCCCCCCCCCCCCCC(=O)NCCCC[C@H](N)C(=O)NCC(=O)N(C)C1C(O)CC(N)C(OC2OC(C(C)N)CCC2N)C1O (stereo partly drawn) [Example 3, 2"-N-(N^ε -stearoyl-L-lysyl)-5-de-O-methyl-KA-6606I] | 15.5 | 14 |
| CC(N)C1CCC(N)C(OC2C(N)CC(O)C(N(C)C(=O)CNC(=O)[C@@H](N)CCCCNC(=O)CC[C@@H](C)[C@H]3CC[C@H]4[C@@H]5CC[C@@H]6C[C@H](O)CC[C@]6(C)[C@H]5C[C@H](O)[C@]34C)C2O)O1 (stereo partly drawn) [Example 4, 2"-N-(N^ε -deoxycholyl-L-lysyl)-5-de-O-methyl-KA-6606I] | 19.8 | 12.7 |
| CCCCCCCCCC(=O)NCC(=O)NCCCC[C@H](N)C(=O)NCC(=O)N(C)C1C(O)CC(N)C(OC2OC(C(C)N)CCC2N)C1O (some centres unmarked) [Example 5] | 21 | 15.5 |
| CCCCCCCCCCCCCCCCCC(=O)NCC(=O)NCCCC[C@H](N)C(=O)NCC(=O)N(C)C1C(O)CC(N)C(OC2OC(C(C)N)CCC2N)C1O (stereo partly drawn) [Example 6, 2"-N-[N^ε -(N-stearoylglysyl)-L-lysyl]-5-de-O-methyl-KA-6606I] | 16.6 | 10.5 |
| CCCCCCCCOC(=O)NCCCC[C@H](N)C(=O)NCC(=O)N(C)C1C(O)CC(N)C(OC2OC(C(C)N)CCC2N)C1O (stereo partly drawn) [Example 7, 2"-N-(N^ε -octyloxycarbonyl-L-lysyl)-5-de-O-methyl-KA-6606I] | 20.7 | 10.5 |
| COC(=O)C[C@H](N)C(=O)NCC(=O)N(C)C1C(O)CC(N)C(OC2OC(C(C)N)CCC2N)C1O (stereo partly drawn) [Example 8, 2"-N-(β-O-methyl-L-aspartyl)-5-de-O-methyl-KA-666I] | 23.9 | 15.9 |
| CC(N)C1CCC(N)C(OC2C(N)CC(O)C(N(C)C(=O)CNC(=O)[C@@H](N)CC(=O)OC(C)(C)C)C2O)O1 (stereo partly drawn) [Example 9, 2"-N-(β-O-tert.-butyl-L-aspartyl)-5-de-O-methyl-KA-6606I] | 23.2 | 12.7 |
| CCCCCCCCOC(=O)C[C@H](N)C(=O)NCC(=O)N(C)C1C(O)CC(N)C(OC2OC(C(C)N)CCC2N)C1O (stereo partly drawn) [Example 10, 2"-N-(β-O-octyl-L-aspartyl)-5-de-O-methyl-KA-6606I] | 21.1 | 14.2 |
| CC(N)C1CCC(N)C(OC2C(N)CC(O)C(N(C)C(=O)CNC(=O)[C@@H](N)CC(=O)Oc3ccccc3)C2O)O1 (stereo partly drawn) [Example 11, 2"-N-(β-O-phenyl-L-aspartyl)-5-de-O-methyl-KA-6606I] | 19 | 14 |
| CC(N)C1CCC(N)C(OC2C(N)CC(O)C(N(C)C(=O)CNC(=O)[C@@H](N)CC(=O)Oc3cccc4ccccc34)C2O)O1 (stereo partly drawn) [Example 12, 2"-N-[β-O-(α-naphthyl)-L-aspartyl]-5-de-O-methyl-KA-6606I] | 18.3 | 12.6 |
| CCCCCCCCCCCCCCCCCC(=O)OCC(O)COC(=O)C[C@H](N)C(=O)NCC(=O)N(C)C1C(O)CC(N)C(OC2OC(C(C)N)CCC2N)C1O (stereo partly drawn) [Example 13, 2"-N-[β-O-(3-stearoyloxy-2-hydroxypropyl)-L-aspartyl]-5-de-O-methyl-KA-6606I] | 18.8 | 13.7 |
